In data set [1] the test system is Staphylococus aureus ATCC 6538 biofilm. Kind of data set: Effect of the lipopeptide on lens liquids against biofilms on 96-well polystyrene plates. Format: cell-based, Staphylococcus aureus. Particulars: SA biofilm on polystyrene, lipopeptide alone in PBS, 24 h. The protocol: Bacterial strains were obtained from the Polish Collection of Microorganisms (Polish Academy of Science, Wroclaw, Poland). Three Gram-positive and two Gram-negative strains linked with CL-related infections were chosen for the study (Staphylococus aureus ATCC 6538, Staphylococcus epidermidis ATCC 14990, Pseudomonas aeruginosa ATCC 9027, Escherichia coli ATCC 25922, and Enterococcus faecalis ATCC 29212). The bacteria were cultured in a Mueller Hinton Broth II (MHB, Biocorp, Warsaw, Poland) overnight, under aerobic conditions at 37 °C. […]
Bacterial suspensions were added to 96-well plates (Kartell, Noviglio, Italy) at initial inoculums of ca. 5 × 10^8 CFU/mL and incubated under aerobic conditions with shaking (120 rpm) at 37 °C for 24 h. […] After 1.5 h of incubation, the absorbance was measured at 570 and 600 nm using a microplate reader (Thermo Fisher Scientific, Waltham, MA, USA). […] The metabolic activity of bacteria in the samples was measured according to the following formula:
Positive controls (100%) were wells with pre-grown biofilms where the MHB II was replaced with pure PBS, while negative controls were wells with pure MHB II (also replaced with PBS). After 24 h of incubation (aerobic conditions, 120 rpm shaking, 37 °C), the solutions were replaced with resazurin in MHB II and the results were read and presented as described in Section 4.3.

The test system of data set [2] is human cells (keratinocytes, erythrocytes). The settings on record: cited from earlier work. The text has this: PA was also the most difficult strain to eliminate from the surface of CL in the previous study, in which we investigated amphibian peptides and short lipopeptides containing hexadecanoic acid according to their potential application as CL solution additives. The results of performed antimicrobial assays were also very promising. However, due to high toxicity towards human keratinocytes in vitro, the ocular applications of lipopeptides with hexadecanoic acid are not worth further consideration. In contrast to those lipopeptides, the compound with two residues of decanoic aci ... || The excellent antimicrobial activity was previously reported for many lipopeptides. This, along with the relatively low production costs, has encouraged many research groups to study their antimicrobial activities and design molecules with optimal properties. C16-KK-NH2 is one of such extensively studied compounds. […] Other derivatives ...

Data set [3] has as its system Staphylococus aureus ATCC 6538 biofilm on CLs. Kind of data set: Lipopeptide, lens liquids and combinations against biofilms on CLs after withdrawal of the antimicrobial solution. Format: cell-based, Staphylococcus aureus. The settings on record: SA biofilm on CLs, lipopeptide in PBS, after withdrawal and 24 h in MHB II. As to the method: (§1) Bacterial strains were obtained from the Polish Collection of Microorganisms (Polish Academy of Science, Wroclaw, Poland). Three Gram-positive and two Gram-negative strains linked with CL-related infections were chosen for the study (Staphylococus aureus ATCC 6538, Staphylococcus epidermidis ATCC 14990, Pseudomonas aeruginosa ATCC 9027, Escherichia coli ATCC 25922, and Enterococcus faecalis ATCC 29212). The bacteria were cultured in a Mueller Hinton Broth II (MHB, Biocorp, Warsaw, Poland) overnight, under aerobic conditions at 37 °C. After incubation, the liquid cultures were centrifuged (2500 rpm for 10 min) and washed with phosphoric buffer (PBS, AppliChem, Darmstadt, Germany) three times and resuspended in fresh MHB II for inoculums appropriate for the performed assays.
Bacterial biofilms were cultured on commercially available CLs (1-Day Acuvue Moist, containing Etafilcon A, obtained from Johnson and Johnson Vision Care, Jacksonsville, FL, USA). […] After incubation, resazurin was added (final concentration per sample = 0.01%) and absorbance was measured as in the assays 4.3 and 4.4. […]
The assay was also performed for the samples where biofilms on CLs were exposed to pure CL solutions. […] The results were read, calculated, and presented as in the previously-described sections.

The test system is the same in data set [4]. Kind of data set: Activity of lipopeptide and CL liquids against biofilms formed on contact lenses. The settings on record: SA biofilm on CLs, lipopeptide in PBS, 24 h, resazurin. Format: cell-based, Staphylococcus aureus. The protocol:
as §1
Bacterial biofilms were cultured on commercially available CLs (1-Day Acuvue Moist, containing Etafilcon A, obtained from Johnson and Johnson Vision Care, Jacksonsville, FL, USA). The CLs were placed in polystyrene 24-well plates (Orange Scientific, Braine-l’Alleud, Belgium) in bacterial suspensions in MHB II at initial inoculums of ca. 5 × 10^8 CFU/mL. After 24 h of incubation (aerobic conditions, 120 rpm shaking, 37 °C), all of the CLs were rinsed three times with PBS. […] After incubation, resazurin was added (final concentration per sample = 0.01%) and absorbance was measured as in the assays 4.3 and 4.4. […]

Data set [5] concerns Escherichia coli ATCC 25922 biofilm on CLs. Kind of data set: Lipopeptide, lens liquids and combinations against biofilms on CLs after withdrawal of the antimicrobial solution. It counts as cell-based. Particulars: EC biofilm on CLs, all tested concentrations, after withdrawal and 24 h in MHB II. The protocol: as §1
(§2) Bacterial biofilms were cultured on commercially available CLs (1-Day Acuvue Moist, containing Etafilcon A, obtained from Johnson and Johnson Vision Care, Jacksonsville, FL, USA). The CLs were placed in polystyrene 24-well plates (Orange Scientific, Braine-l’Alleud, Belgium) in bacterial suspensions in MHB II at initial inoculums of ca. 5 × 10^8 CFU/mL. After 24 h of incubation (aerobic conditions, 120 rpm shaking, 37 °C), all of the CLs were rinsed three times with PBS. […] After incubation, resazurin was added (final concentration per sample = 0.01%) and absorbance was measured as in the assays 4.3 and 4.4. Positive controls contained CLs with bacterial biofilms placed in pure PBS, while sterile CLs incubated in MHB II replaced with PBS served as negative controls. The experiments were performed in triplicate on three different days.
(§3) The assay was also performed for the samples where biofilms on CLs were exposed to pure CL solutions. Positive controls (100%) were biofilms on CLs in PBS, while negative controls were CLs previously incubated in pure MHB II replaced for the exposure time with PBS. After 24 h of exposure (aerobic conditions, 120 rpm shaking, 37 °C) all the solutions were removed, replaced with MHB II and the samples were incubated for another 24 h. Resazurin was then added in order to visualize the results. The results were read, calculated, and presented as in the previously-described sections.

Data set [6] has as its system Pseudomonas aeruginosa ATCC 9027 biofilm on CLs. The data set is described as above. It counts as cell-based. The settings on record: PA biofilm on CLs, all tested concentrations, after withdrawal and 24 h in MHB II. The protocol: as §1, §2, §3
For data set [7], the system named is Enterococcus faecalis ATCC 29212 biofilm on CLs. The description is as above. It counts as cell-based. The settings on record: EF biofilm on CLs, after withdrawal and 24 h in MHB II. As to the method: as §1, §2, §3
The subject of data set [8] is Staphylococcus epidermidis ATCC 14990 biofilm on CLs. Described as above. Particulars: SE biofilm on CLs, lipopeptide in PBS, after withdrawal and 24 h in MHB II. Format: cell-based. The protocol: as §1, §2, §3

(C10)2-KKKK-NH2 [Lipopeptide]: in data set [1], the “concentration at which highly active against biofilm” value is reported as 32 mg/L. Also, in data set [2], the “toxicity towards human cells in vitro” value was “does not exhibit toxicity”. Further, the “concentration permanently removing biofilm from CLs” value in data set [3] and in data set [8] was 16 mg/L each time. Besides, in data set [4], the “concentration reducing metabolic activity of bacteria by at least 90%” value stood at 16 mg/L. For the same substance, the figures for the “regrowth of bacterial population after removal” value in data set [5] and in data set [6] were “ca. 50%” and “fully restored”, respectively. In addition, in data set [7], the “effect on biofilm after removal of the agent” value is reported as “promoted bacterial growth”.

Source of the values: article PMC6358866 (International Journal of Molecular Sciences, 2019).
